In EP4324461A1, “(E)-N-CINAMOYLAMINOALKANOLES WITH MELANOGENESIS INHIBITORY ACTIVITY” (UNIWERSYTET JAGIELLONSKI, priority 2022, dated 2024):
Converted amounts (≈) assume the structure as drawn.

What was measured:
[1] = system: Balb/c 3T3 murine fibroblast cell line; assay: Phototoxicity in Balb/c 3T3 fibroblasts (neutral red uptake)
Experimental: Balb/c 3T3 cells, which are an immortalized murine fibroblast cell line, were purchased at ATTC and cultured in the medium recommended by the manufacturer (DMEM GlutaMAX, newborn calf serum (BCS), antibiotics). After multiplication, cells were placed in 96-well plates, which were incubated for 24 hours, after which all wells of the plates were washed with 150 µL of balanced salt solution (HBSS). Then, after drying the plates, 100 µL of a solution of the tested compounds in HBSS with 2% FBS was added to each well and incubated for an hour. After this time, some of the plates were irradiated using the Suntest CPS+ sunlight simulator from Atlas with appropriate filters cutting off radiation with a wavelength <320 nm (UVA radiation intensity 5 J/cm^2). The second part of the plates was placed in radiation-free conditions for the same period of time. After the exposure time, the liquid was removed from all plates and the wells were washed twice with 150 µL of HBSS, then supplemented with fresh culture medium and incubated for 24 hours in an incubator (37 °C, 5% CO2). Viability was assessed in the neutral red uptake test, which is based on the ability of the dye to penetrate only into living cells. Dye uptake was confirmed by absorbance measurement at 540 nm. […] The appropriate coefficients were also calculated: mean phototoxic effect (MPE) and photoirritation factor (PIF). PIF is the ratio of the IC50 values of unirradiated to irradiated cells, while MPE is based on the comparison of concentration-response curves. […]

[2] = system: reconstituted human epidermis EpiDerm; settings: 21 h, 0.01 %
Experimental: An epidermis with an area of 0.6 cm^2 was used. After receiving the tissue, the inserts were transferred to fresh medium and incubated in an incubator (5% CO2, 37 °C). All work during epidermis culture and application of the tested compounds and formulations was carried out in a laminar air flow chamber, using aseptic principles and sterile reagents and utensils. […] The applied solutions and formulation were spread on the surface of the inserts using a sterile glass bulb headed Pasteur pipette. The plates were incubated in the incubator for 21 hours, after which the inserts were transferred to new 6-well plates with 0.9 mL DBPS. 1 plate was exposed to UVA radiation at a dose of 6 J/cm^2 using a solar light simulator (Solar Simulator, Atlas) as its source (+UVA plate). The second plate was placed in a dark place outside the incubator for the same period of time (-UVA plate). After exposure, inserts from both plates were rinsed with DPBS, dried with a sterile cotton bud and placed in new plates containing 0.9 mL of fresh growth medium and incubated for 21 hours. After this time, the MTT test was performed by placing the inserts in 0.3 mL of MTT solution in DMEM medium (concentration 1 mg/mL) for 3 hours. After this time, the formed formazan was extracted into isopropanol and the absorbance of all samples was read at 270 nm. […]

## CN(C)CCCN1c2ccccc2Sc2ccc(Cl)cc21 [Chlorpromazine, reference compound]
[1]
  phototoxic potential: clearly indicate its phototoxic potential
[1]; Mus musculus, BALB/c3T3
  IC50: 18.6 µg/mL (≈ 58.2 µM)
[1]; mouse, 1 h
  MPE: 0.499
  PIF: 25.618
[2]
  Viability [% relative to water] ± SD: 99.52±9.41 % relative to water
